Reference: PubChem BioAssay (NCI)
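The compound was tested at five concentrations on cells cultured in 96-well plates, with a 48-hour exposure period. The concentration for full growth arrest is given as TGI.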

Assays:
Test in all cases: NCI-60 cell line screen, 48 h
CAKI-1 renal = tested on: CAKI-1 renal
OVCAR-8 ovarian = tested on: OVCAR-8 ovarian
HOP-92 NSCLC = tested on: HOP-92 NSCLC
SF-268 CNS = tested on: SF-268 CNS
MALME-3M melanoma = tested on: MALME-3M melanoma
HS 578T breast = tested on: HS 578T breast
OVCAR-3 ovarian = tested on: OVCAR-3 ovarian
HCT-116 colon = tested on: HCT-116 colon
SW-620 colon = tested on: SW-620 colon
CCRF-CEM leukemia = tested on: CCRF-CEM leukemia
SK-MEL-28 melanoma = tested on: SK-MEL-28 melanoma
KM12 colon = tested on: KM12 colon
HOP-62 NSCLC = tested on: HOP-62 NSCLC
K-562 leukemia = tested on: K-562 leukemia
HT29 colon = tested on: HT29 colon
BT-549 breast = tested on: BT-549 breast
UACC-62 melanoma = tested on: UACC-62 melanoma
NCI-H460 lung = tested on: NCI-H460 lung
SN12C renal = tested on: SN12C renal
T-47D breast = tested on: T-47D breast
SNB-19 CNS = tested on: SNB-19 CNS
IGROV1 ovarian = tested on: IGROV1 ovarian
ACHN renal = tested on: ACHN renal
SK-OV-3 ovarian = tested on: SK-OV-3 ovarian
HL-60(TB) leukemia = tested on: HL-60(TB) leukemia
MCF7 breast = tested on: MCF7 breast
UO-31 renal = tested on: UO-31 renal
NCI-H522 lung = tested on: NCI-H522 lung
786-0 renal = tested on: 786-0 renal
NCI-H23 lung = tested on: NCI-H23 lung
MOLT-4 leukemia = tested on: MOLT-4 leukemia
TK-10 renal = tested on: TK-10 renal
SK-MEL-5 melanoma = tested on: SK-MEL-5 melanoma
HCT-15 colon = tested on: HCT-15 colon
NCI/ADR-RES ovarian = tested on: NCI/ADR-RES ovarian
LOX IMVI melanoma = tested on: LOX IMVI melanoma
DU-145 prostate = tested on: DU-145 prostate
SF-295 CNS = tested on: SF-295 CNS
UACC-257 melanoma = tested on: UACC-257 melanoma
RXF 393 renal = tested on: RXF 393 renal
SNB-75 CNS = tested on: SNB-75 CNS
MDA-N = tested on: MDA-N
RPMI-8226 leukemia = tested on: RPMI-8226 leukemia
EKVX NSCLC = tested on: EKVX NSCLC
M14 melanoma = tested on: M14 melanoma
COLO 205 colon = tested on: COLO 205 colon
A549 NSCLC = tested on: A549 NSCLC
HCC-2998 colon = tested on: HCC-2998 colon
OVCAR-4 ovarian = tested on: OVCAR-4 ovarian
MDA-MB-435 = tested on: MDA-MB-435
OVCAR-5 ovarian = tested on: OVCAR-5 ovarian
A498 renal = tested on: A498 renal

Compound: OC1(C(Sc2cc(C(F)(F)F)cc(C(F)(F)F)c2)Sc2cc(C(F)(F)F)cc(C(F)(F)F)c2)C=CCCC1 (configuration not stated)
- TGI (CAKI-1 renal): 6.33 µM
- TGI (OVCAR-8 ovarian): 7.9 µM
- TGI (HOP-92 NSCLC): 9.15 µM
- TGI (SF-268 CNS): 8.81 µM
- TGI (MALME-3M melanoma): 8.81 µM
- TGI (HS 578T breast): 13.3 µM
- TGI (OVCAR-3 ovarian): 6.14 µM
- TGI (HCT-116 colon): 6.74 µM
- TGI (SW-620 colon): 7.74 µM
- TGI (CCRF-CEM leukemia): 6.39 µM
- TGI (SK-MEL-28 melanoma): 9.12 µM
- TGI (KM12 colon): 5.83 µM
- TGI (HOP-62 NSCLC): 11.4 µM
- TGI (K-562 leukemia): 5.42 µM
- TGI (HT29 colon): 7.24 µM
- TGI (BT-549 breast): 9.89 µM
- TGI (UACC-62 melanoma): 7.79 µM
- TGI (NCI-H460 lung): 3.55 µM
- TGI (SN12C renal): 6.77 µM
- TGI (T-47D breast): 4.26 µM
- TGI (SNB-19 CNS): 8.2 µM
- TGI (IGROV1 ovarian): 8.56 µM
- TGI (ACHN renal): 5.77 µM
- TGI (SK-OV-3 ovarian): 11.3 µM
- TGI (HL-60(TB) leukemia): 3.97 µM
- TGI (MCF7 breast): 4.58 µM
- TGI (UO-31 renal): 3.66 µM
- TGI (NCI-H522 lung): 5.75 µM
- TGI (786-0 renal): 8.09 µM
- TGI (NCI-H23 lung): 8.66 µM
- TGI (MOLT-4 leukemia): 5.08 µM
- TGI (TK-10 renal): 3.8 µM
- TGI (SK-MEL-5 melanoma): 16.6 µM
- TGI (HCT-15 colon): 4.13 µM
- TGI (NCI/ADR-RES ovarian): 10.1 µM
- TGI (LOX IMVI melanoma): 5.9 µM
- TGI (DU-145 prostate): 8.99 µM
- TGI (SF-295 CNS): 6.39 µM
- TGI (UACC-257 melanoma): 3.56 µM
- TGI (RXF 393 renal): 4.77 µM
- TGI (SNB-75 CNS): 10.8 µM
- TGI (MDA-N): 8.16 µM
- TGI (RPMI-8226 leukemia): 4.8 µM
- TGI (EKVX NSCLC): 6.78 µM
- TGI (M14 melanoma): 6.53 µM
- TGI (COLO 205 colon): 5.59 µM
- TGI (A549 NSCLC): 6.1 µM
- TGI (HCC-2998 colon): 3.25 µM
- TGI (OVCAR-4 ovarian): 7.06 µM
- TGI (MDA-MB-435): 7.03 µM
- TGI (OVCAR-5 ovarian): 6.6 µM
- TGI (A498 renal): 4.58 µM
